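Test compounds were applied to cells in 96-well plates for 48 hours at 5 doses. Abbreviation: GI50, concentration required for 50% inhibition of growth.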 Calls of active or inactive are those of the source. No stated cut-off is given here; in the data, active = GI50 up to about 1.1 µM and inactive = higher.
Key:
Assay in all cases: inhibition of tumour cell growth, NCI panel, 48 h
[1] = test system: HL-60
[2] = test system: K562
[3] = test system: 786-0
[4] = test system: MDA-MB-231
[5] = test system: SK-OV-3
[6] = test system: SF-295
[7] = test system: HOP-62
[8] = test system: CCRF-CEM
[9] = test system: OVCAR-5
[10] = test system: NCI-H23
[11] = test system: MDA-MB-435
[12] = test system: NCI-H522
[13] = test system: MOLT-4
[14] = test system: SW-620
[15] = test system: A549
[16] = test system: PC-3
[17] = test system: Malme-3M
[18] = test system: UACC-257
[19] = test system: DU-145
[20] = test system: HCT-116
[21] = test system: SF-268
[22] = test system: LOX IMVI
[23] = test system: SN12C
[24] = test system: SNB-75
[25] = test system: UO-31
[26] = test system: HCC 2998
[27] = test system: NCI/ADR-RES
[28] = test system: COLO 205
[29] = test system: CAKI-1
[30] = test system: HT-29
[31] = test system: NCI-H460
[32] = test system: RPMI-8226
[33] = test system: MCF7
[34] = test system: SK-MEL-28
[35] = test system: SK-MEL-5
[36] = test system: HCT-15
[37] = test system: MDA-N
[38] = test system: SNB-19
[39] = test system: SK-MEL-2
[40] = test system: SF-539
[41] = test system: M14
[42] = test system: T47D
[43] = test system: BT-549
[44] = test system: TK-10
[45] = test system: ACHN
[46] = test system: OVCAR-4
[47] = test system: Hs-578T
[48] = test system: OVCAR-3
[49] = test system: OVCAR-8
[50] = test system: NCI-H226
[51] = test system: IGROV-1
[52] = test system: RXF 393
[53] = test system: SR
[54] = test system: EKVX
[55] = test system: U-251
[56] = test system: KM12
[57] = test system: A498
[58] = test system: HOP-92
[59] = test system: UACC-62

Compound: COC1CCON1C(=O)c1ccccc1 (centres undefined)
- GI50 [1]: > 10 µM (inactive)
- GI50 [2]: > 10 µM (inactive)
- GI50 [3]: > 10 µM (inactive)
- GI50 [4]: > 10 µM (inactive)
- GI50 [5]: > 10 µM (inactive)
- GI50 [6]: > 10 µM (inactive)
- GI50 [7]: > 10 µM (inactive)
- GI50 [8]: > 10 µM (inactive)
- GI50 [9]: > 10 µM (inactive)
- GI50 [10]: > 10 µM (inactive)
- GI50 [11]: > 10 µM (inactive)
- GI50 [12]: > 10 µM (inactive)
- GI50 [13]: > 10 µM (inactive)
- GI50 [14]: > 10 µM (inactive)
- GI50 [15]: > 10 µM (inactive)
- GI50 [16]: > 10 µM (inactive)
- GI50 [17]: > 10 µM (inactive)
- GI50 [18]: > 10 µM (inactive)
- GI50 [19]: > 10 µM (inactive)
- GI50 [20]: > 10 µM (inactive)
- GI50 [21]: > 10 µM (inactive)
- GI50 [22]: > 10 µM (inactive)
- GI50 [23]: > 10 µM (inactive)
- GI50 [24]: > 10 µM (inactive)
- GI50 [25]: > 10 µM (inactive)
- GI50 [26]: > 10 µM (inactive)
- GI50 [27]: > 10 µM (inactive)
- GI50 [28]: > 10 µM (inactive)
- GI50 [29]: > 10 µM (inactive)
- GI50 [30]: > 10 µM (inactive)
- GI50 [31]: > 10 µM (inactive)
- GI50 [32]: > 10 µM (inactive)
- GI50 [33]: > 10 µM (inactive)
- GI50 [34]: > 10 µM (inactive)
- GI50 [35]: > 10 µM (inactive)
- GI50 [36]: > 10 µM
- GI50 [37]: > 10 µM (inactive)
- GI50 [38]: > 10 µM (inactive)
- GI50 [39]: > 10 µM (inactive)
- GI50 [40]: > 10 µM (inactive)
- GI50 [41]: > 10 µM (inactive)
- GI50 [42]: > 10 µM (inactive)
- GI50 [43]: > 10 µM (inactive)
- GI50 [44]: > 10 µM (inactive)
- GI50 [45]: > 10 µM (inactive)
- GI50 [46]: > 10 µM (inactive)
- GI50 [47]: > 10 µM (inactive)
- GI50 [48]: > 10 µM (inactive)
- GI50 [49]: > 10 µM (inactive)
- GI50 [50]: > 10 µM (inactive)
- GI50 [51]: > 10 µM (inactive)
- GI50 [52]: > 10 µM (inactive)
- GI50 [53]: > 10 µM (inactive)
- GI50 [54]: > 10 µM (inactive)

Compound: COc1ccc(C2NC3=C(CCCC3)C3(C#N)C(=O)N=C(N)C23C#N)cc1 (centres undefined)
- GI50 [1]: > 100 µM (inactive)
- GI50 [2]: > 100 µM (inactive)
- GI50 [3]: > 100 µM (inactive)
- GI50 [4]: > 100 µM (inactive)
- GI50 [5]: > 100 µM (inactive)
- GI50 [6]: > 100 µM (inactive)
- GI50 [7]: > 100 µM (inactive)
- GI50 [55]: > 100 µM (inactive)
- GI50 [8]: 23 µM (inactive)
- GI50 [9]: > 100 µM (inactive)
- GI50 [10]: > 100 µM (inactive)
- GI50 [56]: > 100 µM (inactive)
- GI50 [11]: > 100 µM (inactive)
- GI50 [12]: > 100 µM (inactive)
- GI50 [13]: > 100 µM (inactive)
- GI50 [14]: > 100 µM (inactive)
- GI50 [15]: > 100 µM (inactive)
- GI50 [16]: > 100 µM (inactive)
- GI50 [17]: > 100 µM (inactive)
- GI50 [18]: > 100 µM (inactive)
- GI50 [19]: > 100 µM (inactive)
- GI50 [20]: > 100 µM (inactive)
- GI50 [21]: > 100 µM (inactive)
- GI50 [22]: > 100 µM (inactive)
- GI50 [57]: > 100 µM (inactive)
- GI50 [23]: > 100 µM (inactive)
- GI50 [25]: > 100 µM (inactive)
- GI50 [26]: > 100 µM (inactive)
- GI50 [27]: > 100 µM (inactive)
- GI50 [28]: > 100 µM (inactive)
- GI50 [29]: > 100 µM (inactive)
- GI50 [30]: > 100 µM (inactive)
- GI50 [31]: > 100 µM (inactive)
- GI50 [32]: > 100 µM (inactive)
- GI50 [33]: > 100 µM (inactive)
- GI50 [58]: > 100 µM (inactive)
- GI50 [34]: > 100 µM (inactive)
- GI50 [35]: > 100 µM (inactive)
- GI50 [36]: > 100 µM
- GI50 [37]: > 100 µM (inactive)
- GI50 [38]: > 100 µM (inactive)
- GI50 [39]: > 100 µM (inactive)
- GI50 [41]: > 100 µM (inactive)
- GI50 [42]: > 100 µM (inactive)
- GI50 [43]: > 100 µM (inactive)
- GI50 [44]: > 100 µM (inactive)
- GI50 [45]: > 100 µM (inactive)
- GI50 [46]: > 100 µM (inactive)
- GI50 [47]: > 100 µM (inactive)
- GI50 [49]: > 100 µM (inactive)
- GI50 [50]: > 100 µM (inactive)
- GI50 [51]: > 100 µM (inactive)
- GI50 [59]: > 100 µM (inactive)
- GI50 [52]: > 100 µM (inactive)
- GI50 [54]: > 100 µM (inactive)
